In patent US20240101549A1, “N-(2-(4-CYANOTHIAZOLIDIN-3-YL)-2-OXOETHYL)-QUINOLINE-4-CARBOXAMIDES” (AstraZeneca AB, priority 2020, published 2024):

test system: not listed separately; test: Caco-2 cell permeability; format: in vitro ADME; details: human, Caco-2, AB intrinsic; n = 1 or average of n = 2-4; read-out: Caco2 AB Intrinsic Papp
Experimental: Caco-2 cell permeability was measured as described in Mol Pharm 2017, 14, 1601.

SMILES | Papp A→B
N#C[C@@H]1CSCN1C(=O)CNC(=O)c1c(F)cnc2ccc(N3CCOCC3)cc12 [Example 2, (R)—N-(2-(4-Cyanothiazolidin-3-yl)-2-oxoethyl)-3-fluoro-6-morpholino-quinoline-4-carboxamide] | 23 ×10⁻⁶ cm/s
N#C[C@@H]1CSCN1C(=O)CNC(=O)c1ccnc2ccc(N3CC(C(F)F)C3)cc12 [Example 28, (R)—N-(2-(4-Cyanothiazolidin-3-yl)-2-oxoethyl)-6-(3-(difluoromethyl)-azetidin-1-yl)quinoline-4-carboxamide] | 21 ×10⁻⁶ cm/s
CO[C@@H]1CN(c2ccc3nccc(C(=O)NCC(=O)N4CSC[C@H]4C#N)c3c2)[C@H]1C [Example 30, N-(2-((R)-4-Cyanothiazolidin-3-yl)-2-oxoethyl)-6-((2S,3R)-3-methoxy-2-methylazetidin-1-yl)quinoline-4-carboxamide] | 15 ×10⁻⁶ cm/s
N#C[C@@H]1CSCN1C(=O)CNC(=O)c1ccnc2ccc(N3C4CCC3COC4)cc12 [Example 98, 6-(3-Oxa-8-azabicyclo[3.2.1]octan-8-yl)-N-(2-((R)-4-cyanothiazolidin-3-yl)-2-oxoethyl)quinoline-4-carboxamide] | 8.6 ×10⁻⁶ cm/s
N#C[C@@H]1CSCN1C(=O)CNC(=O)c1ccnc2ccc(N3CC(CF)C3)cc12 [Example 113, (R)—N-(2-(4-Cyanothiazolidin-3-yl)-2-oxoethyl)-6-(3-(fluoromethyl)azetidin-1-yl)quinoline-4-carboxamide] | 20 ×10⁻⁶ cm/s
CC1(C)Cc2c(-c3ccc4nccc(C(=O)NCC(=O)N5CSC[C@H]5C#N)c4c3)cnn2C1 [Example 123, (R)—N-(2-(4-Cyanothiazolidin-3-yl)-2-oxoethyl)-6-(5,5-dimethyl-5,6-dihydro-4H-pyrrolo[1,2-b]pyrazol-3-yl)quinoline-4-carboxamide] | 14 ×10⁻⁶ cm/s

The remaining lines, values ahead:

Papp A→B | SMILES
26 ×10⁻⁶ cm/s | COCC1(C)CN(c2ccc3nccc(C(=O)NCC(=O)N4CSC[C@H]4C#N)c3c2)C1 [Example 29, (R)—N-(2-(4-Cyanothiazolidin-3-yl)-2-oxoethyl)-6-(3-(methoxymethyl)-3-methylazetidin-1-yl)quinoline-4-carboxamide]
13 ×10⁻⁶ cm/s | CC1(C)CN(c2ccc3nccc(C(=O)NCC(=O)N4CSC[C@H]4C#N)c3c2)CCO1 [Example 88, (R)—N-(2-(4-Cyanothiazolidin-3-yl)-2-oxoethyl)-6-(2,2-dimethyl-morpholino)quinoline-4-carboxamide]
0.51 ×10⁻⁶ cm/s | CC1(O)CN(c2ccc3nccc(C(=O)NCC(=O)N4CSC[C@H]4C#N)c3c2)C1 [Example 165, (R)—N-(2-(4-Cyanothiazolidin-3-yl)-2-oxoethyl)-6-(3-hydroxy-3-methyl-azetidin-1-yl)quinoline-4-carboxamide]
0.1 ×10⁻⁶ cm/s | CC(=O)N1CC2(C1)CN(c1ccc3nccc(C(=O)NCC(=O)N4CSC[C@H]4C#N)c3c1)C2 [Example 184, (R)-6-(6-Acetyl-2,6-diazaspiro[3.3]heptan-2-yl)-N-(2-(4-cyanothiazolidin-3-yl)-2-oxoethyl)quinoline-4-carboxamide]
0.28 ×10⁻⁶ cm/s | CC1(CS(C)(=O)=O)CN(c2ccc3nccc(C(=O)NCC(=O)N4CSC[C@H]4C#N)c3c2)C1 [Example 188, (R)—N-(2-(4-Cyanothiazolidin-3-yl)-2-oxoethyl)-6-(3-methyl-3-((methylsulfonyl)methyl)azetidin-1-yl)quinoline-4-carboxamide]

molecular target: FAP (Macaca fascicularis, UniProt A0A2K5VGH4); test: FAP plasma inhibition assay, cynomolgus plasma; format: biochemical; details: cynomolgus plasma diluted 1:40, 75 μM Ala-Pro-AMC; n = 1; read-out: FAP Cyno Plasma IC50
Sequence (A0A2K5VGH4 entry or part of it): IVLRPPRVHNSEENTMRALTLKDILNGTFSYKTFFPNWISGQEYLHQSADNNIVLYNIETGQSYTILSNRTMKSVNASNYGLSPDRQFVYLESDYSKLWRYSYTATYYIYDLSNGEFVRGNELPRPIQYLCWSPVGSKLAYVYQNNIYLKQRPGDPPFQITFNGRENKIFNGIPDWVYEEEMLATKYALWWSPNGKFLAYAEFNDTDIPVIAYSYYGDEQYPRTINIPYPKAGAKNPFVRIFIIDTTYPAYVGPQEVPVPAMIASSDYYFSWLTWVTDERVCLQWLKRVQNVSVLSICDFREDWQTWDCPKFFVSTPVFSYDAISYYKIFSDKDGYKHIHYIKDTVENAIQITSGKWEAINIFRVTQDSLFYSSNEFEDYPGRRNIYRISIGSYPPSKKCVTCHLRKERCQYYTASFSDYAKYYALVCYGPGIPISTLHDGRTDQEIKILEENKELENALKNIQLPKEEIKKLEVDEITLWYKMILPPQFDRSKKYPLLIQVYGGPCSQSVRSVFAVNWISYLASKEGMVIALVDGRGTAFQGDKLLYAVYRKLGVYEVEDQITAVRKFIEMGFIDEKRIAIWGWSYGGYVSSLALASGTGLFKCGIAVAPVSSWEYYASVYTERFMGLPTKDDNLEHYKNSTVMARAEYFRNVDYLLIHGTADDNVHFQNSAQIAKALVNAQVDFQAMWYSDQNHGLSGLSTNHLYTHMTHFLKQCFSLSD
Experimental: D. FAP Plasma Inhibition Assay This assay was adapted from the method described in Example 237 for detection of FAP target engagement enzyme activity in plasma. […] Compounds were tested using 10 CR, 3 fold dilution series from 500 nM FAC. Two replicates for each assay point were run on the same plate. A fluorescence blank read was taken before substrate addition. […] Plates were incubated for 40 min at rt in the dark. […] IC50 values were determined by plotting % inhibition versus log compound concentration.

SMILES | IC50
N#C[C@@H]1CSCN1C(=O)CNC(=O)c1c(F)cnc2ccc(N3CCOCC3)cc12 [Example 2, (R)—N-(2-(4-Cyanothiazolidin-3-yl)-2-oxoethyl)-3-fluoro-6-morpholino-quinoline-4-carboxamide] | 9.2 nM
COC1CCN(c2ccc3nccc(C(=O)NCC(=O)N4CSC[C@H]4C#N)c3c2)CC1 [Example 8, (R)—N-(2-(4-Cyanothiazolidin-3-yl)-2-oxoethyl)-6-(4-methoxypiperidin-1-yl)quinoline-4-carboxamide] | 0.2 nM
CC1(C)OCCN(c2ccc3nccc(C(=O)NCC(=O)N4CSC[C@H]4C#N)c3c2)C1=O [Example 16, (R)—N-(2-(4-Cyanothiazolidin-3-yl)-2-oxoethyl)-6-(2,2-dimethyl-3-oxomorpholino)quinoline-4-carboxamide] | 0.2 nM
N#C[C@@H]1CSCN1C(=O)CNC(=O)c1ccnc2ccc(N3CC(C(F)F)C3)cc12 [Example 28, (R)—N-(2-(4-Cyanothiazolidin-3-yl)-2-oxoethyl)-6-(3-(difluoromethyl)-azetidin-1-yl)quinoline-4-carboxamide] | 0.3 nM
N#C[C@@H]1CSCN1C(=O)CNC(=O)c1ccnc2ccc(N3C[C@@H](F)[C@@H](F)C3)cc12 [Example 50, N-(2-((R)-4-Cyanothiazolidin-3-yl)-2-oxoethyl)-6-((3R,4S)-3,4-difluoropyrrolidin-1-yl)quinoline-4-carboxamide] | 0.3 nM
C[C@@H]1CN(c2ccc3nccc(C(=O)NCC(=O)N4CSC[C@H]4C#N)c3c2)C[C@H](C)O1 [Example 68, N-(2-((R)-4-Cyanothiazolidin-3-yl)-2-oxoethyl)-6-((2R,6S)-2,6-dimethylmorpholino)-quinoline-4-carboxamide] | 0.3 nM
N#C[C@@H]1CSCN1C(=O)CNC(=O)c1ccnc2ccc(N3CCO[C@@H](CF)C3)cc12 [Example 69, N-(2-((R)-4-Cyanothiazolidin-3-yl)-2-oxoethyl)-6-((R)-2-(fluoromethyl)morpholino)-quinoline-4-carboxamide] | 0.2 nM
C[C@@H]1CN(c2ccc3nccc(C(=O)NCC(=O)N4CSC[C@H]4C#N)c3c2)C[C@@H](C)O1 [Example 70, N-(2-((R)-4-Cyanothiazolidin-3-yl)-2-oxoethyl)-6-((2R,6R)-2,6-dimethylmorpholino)-quinoline-4-carboxamide] | 0.2 nM
N#C[C@@H]1CSCN1C(=O)CNC(=O)c1ccnc2ccc(N3CCO[C@H](CF)C3)cc12 [Example 71, N-(2-((R)-4-Cyanothiazolidin-3-yl)-2-oxoethyl)-6-((S)-2-(fluoromethyl)morpholino)-quinoline-4-carboxamide] | 0.2 nM
N#C[C@@H]1CSCN1C(=O)CNC(=O)c1ccnc2ccc(N3CCO[C@H](C(F)(F)F)C3)cc12 [Example 74, N-(2-((R)-4-Cyanothiazolidin-3-yl)-2-oxoethyl)-6-((S)-2-(trifluoromethyl)-morpholino)quinoline-4-carboxamide] | 0.2 nM
C[C@@H]1OCCN(c2ccc3nccc(C(=O)NCC(=O)N4CSC[C@H]4C#N)c3c2)[C@H]1C [Example 82, N-(2-((R)-4-Cyanothiazolidin-3-yl)-2-oxoethyl)-6-((2S,3S)-2,3-dimethyl-morpholino)quinoline-4-carboxamide] | 0.3 nM
N#C[C@@H]1CSCN1C(=O)CNC(=O)c1ccnc2ccc(N3C4CCC3COC4)cc12 [Example 98, 6-(3-Oxa-8-azabicyclo[3.2.1]octan-8-yl)-N-(2-((R)-4-cyanothiazolidin-3-yl)-2-oxoethyl)quinoline-4-carboxamide] | 0.3 nM
C[C@H]1COCCN1c1ccc2nccc(C(=O)NCC(=O)N3CSC[C@H]3C#N)c2c1 [Example 102, N-(2-((R)-4-Cyanothiazolidin-3-yl)-2-oxoethyl)-6-((S)-3-methyl-morpholino)quinoline-4-carboxamide] | 0.2 nM
CC1(C)CCN(c2ccc3nccc(C(=O)NCC(=O)N4CSC[C@H]4C#N)c3c2)C(=O)O1 [Example 112, (R)—N-(2-(4-Cyanothiazolidin-3-yl)-2-oxoethyl)-6-(6,6-dimethyl-2-oxo-1,3-oxazinan-3-yl)quinoline-4-carboxamide] | 0.5 nM
N#C[C@@H]1CSCN1C(=O)CNC(=O)c1ccnc2ccc(N3CC(CF)C3)cc12 [Example 113, (R)—N-(2-(4-Cyanothiazolidin-3-yl)-2-oxoethyl)-6-(3-(fluoromethyl)azetidin-1-yl)quinoline-4-carboxamide] | 0.4 nM
CN1CCC(F)(c2ccc3nccc(C(=O)NCC(=O)N4CSC[C@H]4C#N)c3c2)CC1 [Example 195, (R)—N-(2-(4-Cyanothiazolidin-3-yl)-2-oxoethyl)-6-(4-fluoro-1-methyl-piperidin-4-yl)quinoline-4-carboxamide] | 1 nM

Next, values leading:

IC50 | SMILES
0.3 nM | CC1(F)CN(c2ccc3nccc(C(=O)NCC(=O)N4CSC[C@H]4C#N)c3c2)C1 [Example 24, (R)—N-(2-(4-Cyanothiazolidin-3-yl)-2-oxoethyl)-6-(3-fluoro-3-methyl-azetidin-1-yl)quinoline-4-carboxamide]
0.3 nM | CC1(CF)CN(c2ccc3nccc(C(=O)NCC(=O)N4CSC[C@H]4C#N)c3c2)C1 [Example 27, (R)—N-(2-(4-Cyanothiazolidin-3-yl)-2-oxoethyl)-6-(3-(fluoromethyl)-3-methylazetidin-1-yl)quinoline-4-carboxamide]
0.2 nM | C[C@@H]1CN(c2ccc3nccc(C(=O)NCC(=O)N4CSC[C@H]4C#N)c3c2)CCO1 [Example 72, N-(2-((R)-4-Cyanothiazolidin-3-yl)-2-oxoethyl)-6-((R)-2-methylmorpholino)-quinoline-4-carboxamide]
0.2 nM | CC1(C)CN(c2ccc3nccc(C(=O)NCC(=O)N4CSC[C@H]4C#N)c3c2)CCO1 [Example 88, (R)—N-(2-(4-Cyanothiazolidin-3-yl)-2-oxoethyl)-6-(2,2-dimethyl-morpholino)quinoline-4-carboxamide]
0.1 nM | CC(F)(F)C1CN(c2ccc3nccc(C(=O)NCC(=O)N4CSC[C@H]4C#N)c3c2)C1 [Example 147, (R)—N-(2-(4-Cyanothiazolidin-3-yl)-2-oxoethyl)-6-(3-(1,1-difluoroethyl)-azetidin-1-yl)quinoline-4-carboxamide]
0.3 nM | COC1(C)CN(c2ccc3nccc(C(=O)NCC(=O)N4CSC[C@H]4C#N)c3c2)C1 [Example 151, (R)—N-(2-(4-Cyanothiazolidin-3-yl)-2-oxoethyl)-6-(3-methoxy-3-methylazetidin-1-yl)quinoline-4-carboxamide]
0.4 nM | N#C[C@@H]1CSCN1C(=O)CNC(=O)c1ccnc2ccc(N3CC(F)(CF)C3)cc12 [Example 157, (R)—N-(2-(4-Cyanothiazolidin-3-yl)-2-oxoethyl)-6-(3-fluoro-3-(fluoromethyl)azetidin-1-yl)quinoline-4-carboxamide]
0.2 nM | N#C[C@@H]1CSCN1C(=O)CNC(=O)c1ccnc2ccc(N3CC4(C3)OCCO4)cc12 [Example 163, (R)—N-(2-(4-Cyanothiazolidin-3-yl)-2-oxoethyl)-6-(5,8-dioxa-2-azaspiro[3.4]octan-2-yl)quinoline-4-carboxamide]
0.5 nM | CC(=O)NCC1(C)CN(c2ccc3nccc(C(=O)NCC(=O)N4CSC[C@H]4C#N)c3c2)C1 [Example 181, (R)-6-(3-(Acetamidomethyl)-3-methylazetidin-1-yl)-N-(2-(4-cyano-thiazolidin-3-yl)-2-oxoethyl)quinoline-4-carboxamide]
0.3 nM | CC(=O)N1CC2(C1)CN(c1ccc3nccc(C(=O)NCC(=O)N4CSC[C@H]4C#N)c3c1)C2 [Example 184, (R)-6-(6-Acetyl-2,6-diazaspiro[3.3]heptan-2-yl)-N-(2-(4-cyanothiazolidin-3-yl)-2-oxoethyl)quinoline-4-carboxamide]
0.3 nM | N#C[C@@H]1CSCN1C(=O)CNC(=O)c1ccnc2ccc(N3CCC(F)CC3)cc12 [Example 205, (R)—N-(2-(4-Cyanothiazolidin-3-yl)-2-oxoethyl)-6-(4-fluoropiperidin-1-yl)quinoline-4-carboxamide]
